Where “and” joins values, the source holds several entries; their conditions need not be identical. Equal entries are not always repeated. Values belong to the molecule of their own block, whether it stands above or below them.
Legend:
human nSMase2 [1] = biological target: T1, human nSMase2 (Homo sapiens, UniProt Q9NY59); assay: 14C-SM confirmatory direct activity assay; format: biochemical; design: Full length human nSMase2 cDNA with a C-terminal Flag tag; host or cells: HEK293, stably transfected; crude cell lysate used as enzyme; details: for human nSMase2 inhibitory activity of analog vs cambinol: SAR; for IC50: [14C]-SM direct activity assay, human recombinant enzyme
T1 sequence (Q9NY59 1-655): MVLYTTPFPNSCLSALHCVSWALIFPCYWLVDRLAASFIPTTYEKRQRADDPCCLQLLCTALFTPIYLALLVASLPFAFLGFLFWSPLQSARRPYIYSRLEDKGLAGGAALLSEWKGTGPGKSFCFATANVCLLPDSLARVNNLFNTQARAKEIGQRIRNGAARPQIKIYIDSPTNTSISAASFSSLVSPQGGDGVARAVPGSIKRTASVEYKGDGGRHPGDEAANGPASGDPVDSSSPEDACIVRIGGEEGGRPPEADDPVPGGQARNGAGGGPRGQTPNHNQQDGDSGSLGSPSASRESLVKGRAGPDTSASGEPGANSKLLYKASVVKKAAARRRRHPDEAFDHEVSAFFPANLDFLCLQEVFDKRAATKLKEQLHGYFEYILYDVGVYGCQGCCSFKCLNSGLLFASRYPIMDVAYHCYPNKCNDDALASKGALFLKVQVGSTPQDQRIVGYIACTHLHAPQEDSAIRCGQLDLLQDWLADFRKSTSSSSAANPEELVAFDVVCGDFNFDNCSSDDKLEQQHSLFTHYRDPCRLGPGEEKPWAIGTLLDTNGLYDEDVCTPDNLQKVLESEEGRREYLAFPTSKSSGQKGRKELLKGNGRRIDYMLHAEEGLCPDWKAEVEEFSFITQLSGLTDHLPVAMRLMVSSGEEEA
Procedure: This assay was dependent on the direct hydrolysis of ^14C-labeled SM (^14C N-methyl groups in the phosphorylcholine) by human nSMase2. Optimization of assay conditions was accomplished according to the methods of Barbone et al.. Briefly, bovine [N-methyl-^14C]-sphingomyelin (specific activity […], Perkin Elmer) and phosphatidylinositol (Avanti Polar Lipids) were evaporated to dryness under a stream of nitrogen and resuspended at an equimolar concentration of 0.1 mM in water with 0.5% Triton X-100 (Sigma). The solution was vortexed for 30 min and then sonicated for 30 min. Assay conditions were as follows: 50 μl total volume per reaction, consisting of 20 μM SM, reaction buffer (100 mM Tris-HCl pH 7.5, 80 mM MgCl2, 0.1% Triton X-100); 10 μl cell lysate containing recombinant human nSMase2 (0.5–1 μg protein/assay) and 5 μl of compound in reaction buffer containing 10% DMSO. After 1 h incubation at 37°C the reaction was terminated by the addition of 30 μl of water and 175 μl of chloroform/methanol (2:1, v:v), followed by vigorous vortexing. Tubes were centrifuged for 5 min at 10,000 xg at room temperature to separate the organic bottom phase containing labeled SM and the aqueous upper phase containing ^14C-labeled-phosphorylcholine. An aliquot (50 μl) of the upper phase was transferred to a vial with 10 ml of scintillant and counted for 2 min on a Beckman LS-6000IC scintillation counter. Enzyme activity was directly proportional to the disintegrations per min (dpm) resulting from the generation of ^14C-phosphorylcholine.

[2] = system: rat primary hippocampal neurons; assay: Hippocampal neuronal survival (Hoechst 33342); format: cell-based
Procedure: All animal procedures were approved by the Johns Hopkins University Animal Care and Use Committee. Primary hippocampal neurons were prepared from day 18 decapitated embryos of Sprague-Dawley rats following previously described methods. Cells were seeded on polyethyleneimine (PEI)-coated slides in 12-well plates and cultured between 14–21 days. […] After 18 h, cells were stained with 50 μg/ml Hoeschst 33342 for 20 min and then fixed with 4% paraformaldehyde for 30 min. The number of living and apoptotic cells was determined by fluorescence microscopy. A minimum of 500 cells were counted per treatment condition. Results were normalized to control untreated cells and were representative of at least two independent experiments conducted in triplicate. Statistical evaluation of the data was done by Student’s t-test.

[3] = system: rat primary cortical neurons; assay: Lipid extraction and ceramide measurements (LC-MS/MS); format: cell-based
Procedure: Primary cortical neurons were prepared from embryonic day 18 Sprague-Dawley rats following previously described methods. […] A crude lipid extract from cortical neurons was obtained using a modified Bligh and Dyer procedure. Ceramide C12:0 (Avanti Polar Lipids) was included as an internal standard. The organic layers were dried in a nitrogen evaporator (Organomation Associates Inc.) and stored at -80°C. Dried organic layers were resuspended in methanol just prior to analysis. The detection and quantitation of individual ceramide species was performed on a high-performance liquid chromatography (HPLC) coupled electrospray ionization triple quadrupole mass spectrometer (API3000, AB Sciex Inc.) using settings similar to those described in previous studies. Samples were handled by a CTC PAL autosampler (LEAP Technologies Inc.) and injected into an HPLC (PerkinElmer) equipped with a reverse phase C18 column (Phenomex). […] The eluted sample was injected into the electrospray ionization source and detection of each ceramide species was conducted by multiple reaction monitoring. Spectral analysis was conducted using MultiQuant (AB Sciex Inc.), individually validated and normalized to the internal standard. Final data for each ceramide species in counts per second was expressed as the ratio of analyte/internal standard.

human nSMase2 [4] = biological target: T1, human nSMase2; assay: Fluorescence (Amplex red coupled) nSMase2 activity assay; format: biochemical; design: Full length human nSMase2 cDNA with a C-terminal Flag tag; crude cell lysate used as enzyme
Procedure: The production of the latter was coupled to a dephosphorylation reaction catalyzed by alkaline phosphatase (4 U/ml) to produce choline, followed by oxidation of choline by choline oxidase (0.1 U/ml) to produce betaine and H2O2, which in the presence of horseradish peroxidase (HRP, 1U/ml) and 50 μM Amplex red, generates the fluorescent molecule resorufin (Life Technologies). Substrate stock solution was prepared in 2% Triton X-100, vortexed and sonicated for 30 min. Reactions were carried out for 1 h at 37°C in 100 mM Tris-HCl pH 7.4, 10 mM MgCl2, 0.2% Triton X-100 and the generation of the fluorescent product was monitored by measuring relative florescence units (RFU) with excitation at 530 nm and emission at 590 nm (Fig 1). This assay was optimized for 384-well format (50 μl total volume per well) based on linearity of the enzymatic activity with respect to time, as well as substrate and enzyme concentrations. […] This fluorescence assay was used for compound screening and IC50 value determinations, based on duplicate eight-point dose response curves.

nSMase = system: nSMase; design: method as in PMID 21615386, PMID 17049336; details: cited from earlier work
[5] = TNF-a: 100 ng/ml TNF-α for 2 min

%Inhibition (human nSMase2 [1]; Log [compound] -4.0): -11.0% and -13.0% | %Inhibition (human nSMase2 [1]; Log [compound] -5.0): -11.0% and -12.0% | %Inhibition (human nSMase2 [1]; Log [compound] -6.0): -2.0% and -3.0% | %Inhibition (human nSMase2 [1]; Log [compound] -7.0): 3.0% and 0.0% | %Inhibition (human nSMase2 [1]; Log [compound] -9.0): 4.0% | %Inhibition (human nSMase2 [1]; Log [compound] -10.0): -1.0% and -2.0% | human nSMase2 inhibitory activity of analog vs cambinol (human nSMase2 [1]): loss of activity | IC50 (human nSMase2 [1]): > 100 µM
Molecule: O=c1[nH]c(-c2ccccc2)c(Cc2c(O)ccc3ccccc23)c(=O)[nH]1 [compound 2]
neuron survival, Mean (normalized to control untreated cells) ([2]; 100 ng/ml IL1β 18 h, 10 µM compound): 79.08 | neuron survival, Mean (normalized to control untreated cells) ([2]; 100 ng/ml IL1β 18 h, 25 µM compound): 81.7 | neuron survival, Mean (normalized to control untreated cells) ([2]; 100 ng/ml TNFα 18 h, 10 µM compound): 76.55 | neuron survival, Mean (normalized to control untreated cells) ([2]; 100 ng/ml TNFα 18 h, 25 µM compound): 81.8

IC50 (human nSMase2 [1]): 2 ± 1 µM
Molecule: O=c1[nH]c(=S)[nH]c(-c2ccc(Br)cc2)c1Cc1c(O)ccc2ccccc12 [compound 7]

%Inhibition (human nSMase2 [1]; Log [compound] -4.0): 95.0% and 94.0% | %Inhibition (human nSMase2 [1]; Log [compound] -5.0): 80.0% and 79.0% | %Inhibition (human nSMase2 [1]; Log [compound] -6.0): 22.0% and 21.0% | %Inhibition (human nSMase2 [1]; Log [compound] -7.0): 2.0% and 0.0% | %Inhibition (human nSMase2 [1]; Log [compound] -8.0): -8.0% and -11.0% | %Inhibition (human nSMase2 [1]; Log [compound] -9.0): -1.0% and -3.0% | %Inhibition (human nSMase2 [1]; Log [compound] -10.0): -11.0% and -10.0% | IC50 (human nSMase2 [1]): 3 µM
Molecule: Cc1ccccc1-c1[nH]c(=S)[nH]c(=O)c1Cc1c(O)ccc2ccccc12 [compound 6]

Continued, molecule first:

Molecule: O=c1nc(SCc2ccccc2)[nH]c(-c2ccccc2)c1Cc1c(O)ccc2ccccc12 [compound 3]
human nSMase2 inhibitory activity of analog vs cambinol (human nSMase2 [1]): loss of activity | IC50 (human nSMase2 [1]): > 50 µM

Molecule: TNF-α
Ceramide d18:1/16:0, ratio analyte/internal standard [3, 5]: 2.626 and 2.724 and 1.914 and 2.181 and 2.47 and 2.215 | Ceramide d18:1/18:0, ratio analyte/internal standard [3, 5]: 9.562 and 9.737 and 7.685 and 8.892 and 9.601 and 8.529 | Ceramide d18:1/20:0, ratio analyte/internal standard [3, 5]: 0.6563 and 0.629 and 0.4932 and 0.6036 and 0.6125 and 0.6685 | Ceramide d18:1/22:0, ratio analyte/internal standard [3, 5]: 0.2034 and 0.2174 and 0.1793 and 0.213 and 0.2196 and 0.1978 | Ceramide d18:1/24:0, ratio analyte/internal standard [3, 5]: 0.2705 and 0.2427 and 0.2002 and 0.2059 and 0.2011 and 0.2312 | Ceramide d18:1/24:1, ratio analyte/internal standard [3, 5]: 0.2934 and 0.2773 and 0.185 and 0.2472 and 0.2529 and 0.2866 | Dihexosylceramides d18:1/16:0, ratio analyte/internal standard [3, 5]: 0.0212 and 0.02618 and 0.02908 and 0.01607 and 0.02926 and 0.02318 | Dihexosylceramides d18:1/18:0, ratio analyte/internal standard [3, 5]: 0.1307 and 0.1534 and 0.1151 and 0.09786 and 0.1336 and 0.132 | Dihydroceramides d18:0/18:0, ratio analyte/internal standard [3, 5]: 0.1552 and 0.1446 and 0.1353 and 0.136 and 0.1435 and 0.1236 | Monohexosylceramides d18:1/16:0, ratio analyte/internal standard [3, 5]: 1.65E-01 and 1.78E-01 and 1.43E-01 and 1.25E-01 and 1.46E-01 and 1.28E-01 | Monohexosylceramides d18:1/18:0, ratio analyte/internal standard [3, 5]: 8.33E-01 and 9.27E-01 and 8.86E-01 and 8.09E-01 and 8.11E-01 and 9.45E-01 | Monohexosylceramides d18:1/20:0, ratio analyte/internal standard [3, 5]: 1.68E-01 and 1.71E-01 and 1.46E-01 and 1.34E-01 and 1.36E-01 | Monohexosylceramides d18:1/22:0, ratio analyte/internal standard [3, 5]: 6.26E-02 and 5.07E-02 and 4.08E-02 and 5.38E-02 and 5.08E-02 and 5.16E-02 | Monohexosylceramides d18:1/24:0, ratio analyte/internal standard [3, 5]: 4.46E-02 and 4.59E-02 and 3.01E-02 and 3.48E-02 and 3.50E-02 and 3.93E-02 | Monohexosylceramides d18:1/24:1, ratio analyte/internal standard [3, 5]: 9.28E-02 and 9.45E-02 and 8.80E-02 and 6.42E-02 and 8.57E-02 and 6.27E-02 | effect on long chain ceramide levels ([3]; rat primary cortical neurons): rapid increase

Molecule: C[S+](C)[O-] [DMSO]
human nSMase2 activity (human nSMase2 [4]; 0.1% DMSO): 2703.2500 RFU and 2871.2510 RFU and 2454.0980 RFU and 2595.8260 RFU | human nSMase2 activity (human nSMase2 [4]; 1% DMSO): 2256.2870 RFU and 2299.5150 RFU and 2360.8330 RFU and 2629.8220 RFU | human nSMase2 activity (human nSMase2 [4]; 10% DMSO): 1706.1510 RFU and 1610.6720 RFU and 1424.4530 RFU and 1442.3390 RFU | inhibition of human nSMase2 activity (human nSMase2 [4]; DMSO up to 1%): no significant inhibition

Molecule: CC[C@@H](C)/C=C(\C)C[C@@H](C)C[C@@H](C)/C=C/C=C/C=C/C(=O)N[C@H](CO)C[C@@]1(O)C(=O)C=C[C@@H]2O[C@@H]21 [Scyphostatin]
MOI (nSMase): Competitive

Molecule: O=c1cc(-c2ccccc2)[nH]c(=S)[nH]1 [compound 5]
IC50 (human nSMase2 [1]): > 50 µM | increase in IC50 value (human nSMase2 [1]; vs cambinol): 10 fold
